From PubChem BioAssay AID1963872 (Molecular Pharmacology Branch, DTP, NCI, 2024)
pIC50: −log10 of the molar value.

Test system: KRAS patient-derived spheroids with HUVEC/MSC, viability
Assay: Anticancer human tumor 519858-162-T-J1-PDC patient-derived colon adenocarcinoma cell line growth inhibition [KRAS2]
Details: for viability, T/C: stronger effect = lower value
In short: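 KRAS-mutant tumor cells were grown as spheroids with HUVEC endothelial cells and human MSCs as stroma. Targeted agents were tested alone and with KRAS pathway inhibitors. Doses started at or near clinical Cmax, or 10 microM, descending half-log.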

[1] = curve of first compound, second compound 0.1 µM
[2] = curve of first compound, second compound 0.316 µM
[3] = curve of first compound, second compound 1 µM
[4] = curve of first compound, second compound 3.16 µM
[5] = curve of first compound, second compound 10 µM
[6] = second compound 0.1 µM, first compound 0.0316 µM
[7] = second compound 0.1 µM, first compound 0.1 µM
[8] = second compound 0.1 µM, first compound 0.316 µM
[9] = second compound 0.1 µM, first compound 1 µM
[10] = second compound 0.1 µM, first compound 3.16 µM
[11] = second compound 0.1 µM, first compound 10 µM
[12] = second compound 0.316 µM, first compound 0.0316 µM
[13] = second compound 0.316 µM, first compound 0.1 µM
[14] = second compound 0.316 µM, first compound 0.316 µM
[15] = second compound 0.316 µM, first compound 1 µM
[16] = second compound 0.316 µM, first compound 3.16 µM
[17] = second compound 0.316 µM, first compound 10 µM
[18] = second compound 1 µM, first compound 0.0316 µM
[19] = second compound 1 µM, first compound 0.1 µM
[20] = second compound 1 µM, first compound 0.316 µM
[21] = second compound 1 µM, first compound 1 µM
[22] = second compound 1 µM, first compound 3.16 µM
[23] = second compound 1 µM, first compound 10 µM
[24] = second compound 3.16 µM, first compound 0.0316 µM
[25] = second compound 3.16 µM, first compound 0.1 µM
[26] = second compound 3.16 µM, first compound 0.316 µM
[27] = second compound 3.16 µM, first compound 1 µM
[28] = second compound 3.16 µM, first compound 3.16 µM
[29] = second compound 3.16 µM, first compound 10 µM
[30] = second compound 10 µM, first compound 0.0316 µM
[31] = second compound 10 µM, first compound 0.1 µM
[32] = second compound 10 µM, first compound 0.316 µM
[33] = second compound 10 µM, first compound 1 µM
[34] = second compound 10 µM, first compound 3.16 µM
[35] = second compound 10 µM, first compound 10 µM
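Also: compound exposure lasted seven days before readout.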
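For viability, T/C in this document: 100% = DMSO vehicle control viability.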

Row | SMILES | pIC50 [1] | pIC50 [2] | pIC50 [3] | pIC50 [4] | pIC50 [5] | viability, T/C [6] [%] | viability, T/C [7] [%] | viability, T/C [8] [%] | viability, T/C [9] [%] | viability, T/C [10] [%] | viability, T/C [11] [%] | viability, T/C [12] [%] | viability, T/C [13] [%] | viability, T/C [14] [%] | viability, T/C [15] [%] | viability, T/C [16] [%] | viability, T/C [17] [%] | viability, T/C [18] [%] | viability, T/C [19] [%] | viability, T/C [20] [%] | other results
1 | O=C(c1cc(Cc2n[nH]c(=O)c3ccccc23)ccc1F)N1CCN(C(=O)C2CC2)CC1 + C=CC(=O)N1CCN(c2nc(=O)n(-c3c(C)ccnc3C(C)C)c3nc(-c4c(O)cccc4F)c(F)cc23)C(C)C1 | < 5.00 | < 5.00 | < 5.00 | < 5.00 | < 5.00 | 71.4 | 111 | 96.3 | 120 | 123 | 110 | 89.2 | 91.2 | 95.1 | 97.4 | 91.9 | 111 | 73.9 | 98.4 | 80.8 | viability, T/C [21]: 100%; viability, T/C [22]: 89.3%; viability, T/C [23]: 108%; viability, T/C [24]: 88.8%; viability, T/C [25]: 92.5%; viability, T/C [26]: 84%; viability, T/C [27]: 95%; viability, T/C [28]: 96.8%; viability, T/C [29]: 120%; viability, T/C [30]: 106%; viability, T/C [31]: 106%; viability, T/C [32]: 72.5%; viability, T/C [33]: 83.8%; viability, T/C [34]: 86.1%; viability, T/C [35]: 72.7%
2 | Cn1ncnc1[C@H]1c2n[nH]c(=O)c3cc(F)cc(c23)N[C@@H]1c1ccc(F)cc1 |  |  |  |  |  |  |  |  |  |  |  |  |  |  |  |  |  |  |  |  | viability, T/C (compound 0.00316 µM): 85.4% [middle of 5 runs]; viability, T/C (compound 0.01 µM): 87% [middle of 5 runs]; pIC50 (curve of compound): < 7.00
3 | CC(C)NCC(C(=O)N1CCN(c2ncnc3c2C(C)CC3O)CC1)c1ccc(Cl)cc1 (stereo not drawn) + COc1cc2nc(C)nc(NC(C)c3cc(N)cc(C(F)(F)F)c3)c2cc1OC1CCOC1 | 5.00 | < 5.00 | < 5.00 | < 5.00 | < 5.00 | 72.5 | 89.6 | 86.2 | 99.4 | 41.4 | 71 | 67.6 | 105 | 89.6 | 74.3 | 65.2 | 78.4 | 77.4 | 113 | 78.2 | viability, T/C [21]: 66%; viability, T/C [22]: 49.4%; viability, T/C [23]: 60.3%; viability, T/C [24]: 78%; viability, T/C [25]: 69.2%; viability, T/C [26]: 56.6%; viability, T/C [27]: 56.1%; viability, T/C [28]: 61.5%; viability, T/C [29]: 64.1%; viability, T/C [30]: 58.7%; viability, T/C [31]: 62%; viability, T/C [32]: 61.2%; viability, T/C [33]: 52.3%; viability, T/C [34]: 58.8%; viability, T/C [35]: 72%
